From patent publication US20060069132A1, “Azolecarboxamide herbicides” (priority 2004, published 2006)

Columns and labels:
[1] = system: giant foxtail; experiment: Test B pre-/postemergence herbicide test; assay type: in vivo, Setaria faberi; conditions: for Plant response rating, Foxtail, Giant: preemergence; for Foxtail, Giant plant response rating: postemergence, visual rating, scale 0 (no effect) to 100 (complete control)
In short: (§1)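 Pre: seeds sown, then sprayed. Post: 1–4-leaf plants (2–18 cm) sprayed at the same time. Paddy: flooded, treated at 2-leaf stage. Formulation: non-phytotoxic solvent with surfactant. Greenhouse 13–15 days; visual 0–100 score relative to controls.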

[2] = system: blackgrass; experiment: Test B postemergence herbicide test; assay type: in vivo, Alopecurus myosuroides; conditions: postemergence, visual rating, scale 0 (no effect) to 100 (complete control)
In short: (§2)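 After treating 2-leaf paddy plants or 2–18 cm postemergence plants (1 to 4 leaves) with formulated chemical, researchers kept them in a greenhouse for 13–15 days. Effects were judged visually versus controls: 0 indicates none, 100 total control.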

[3] = system: redroot pigweed; experiment: Test A pre-/postemergence herbicide test; assay type: in vivo, Amaranthus retroflexus
In short: (§3)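 Visual injury scores on a 0–100 scale (100 = complete control) taken about ten days post-treatment in greenhouse against untreated controls; dash means no result. Treatments: preemergence soil spray and postemergence spray to runoff on one- to two-leaf plants 2 to 10 cm tall, surfactant-containing formulation.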

[4] = system: ducksalad; experiment: Test B flooded paddy test; assay type: in vivo, Heteranthera limosa; conditions: 1000 g ai/ha, visual rating, scale 0 to 100 (0 no effect, 100 complete control), 13 to 15 days
In short: as §2

[5] = system: morningglory; experiment: Test A pre-/postemergence herbicide test; assay type: in vivo, Ipomoea spp.
In short: as §3

[6] = system: wheat; experiment: Test B postemergence herbicide test; assay type: in vivo, Triticum aestivum; parameters: key to Wheat plant response rating: 0 = no effect, 100 = complete control; conditions: postemergence, 500 g ai/ha; visual rating, scale 0 (no effect) to 100 (complete control)
In short: as §2

[7] = system: large crabgrass; experiment: Test B pre-/postemergence herbicide test; assay type: in vivo, Digitaria sanguinalis; conditions: for Plant response rating, Crabgrass, Large: preemergence; for Crabgrass, Large plant response rating: postemergence, visual rating, scale 0 (no effect) to 100 (complete control)
In short: as §1

[8] = system: rice; experiment: Test B pre-/postemergence herbicide test; assay type: in vivo, Oryza sativa; conditions: preemergence
In short: as §1

[9] = system: lambsquarters; experiment: Test B pre-/postemergence herbicide test; assay type: in vivo, Chenopodium album; conditions: for Plant response rating, Lambsquarters: preemergence; for Lambsquarters plant response rating: postemergence, visual rating, scale 0 (no effect) to 100 (complete control)
In short: as §1

[10] = system: velvetleaf; experiment: Test B pre-/postemergence herbicide test; assay type: in vivo, Abutilon theophrasti; conditions: for Plant response rating, Velvetleaf: preemergence; for Velvetleaf plant response rating: postemergence, visual rating, scale 0 (no effect) to 100 (complete control)
In short: as §1

[11] = system: barnyardgrass; experiment: Test A pre-/postemergence herbicide test; assay type: in vivo, Echinochloa crus-galli
In short: as §3

[12] = system: Surinam grass; experiment: Test B pre-/postemergence herbicide test; assay type: in vivo, Urochloa decumbens; conditions: for Plant response rating, Surinam Grass: preemergence; for Surinam Grass plant response rating: postemergence, visual rating, scale 0 (no effect) to 100 (complete control)
In short: as §1

[13] = system: barnyardgrass; experiment: Test B flooded paddy test; assay type: in vivo, Echinochloa crus-galli; conditions: 1000 g ai/ha, visual rating, scale 0 to 100 (0 no effect, 100 complete control), 13 to 15 days
In short: as §2

[14] = system: pigweed; experiment: Test B pre-/postemergence herbicide test; assay type: in vivo, Amaranthus retroflexus; conditions: for Plant response rating, Pigweed: preemergence; for Pigweed plant response rating: postemergence, visual rating, scale 0 (no effect) to 100 (complete control)
In short: as §1

[15] = system: velvetleaf; experiment: Test A pre-/postemergence herbicide test; assay type: in vivo, Abutilon theophrasti
In short: as §3

[16] = system: rice; experiment: Test B flooded paddy test; assay type: in vivo, Oryza sativa; conditions: 1000 g ai/ha, visual rating, scale 0 to 100 (0 no effect, 100 complete control), 13 to 15 days
In short: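 Plants grow to 1- to 4-leaf stage (2–18 cm) for postemergence spraying, or to 2-leaf stage for the paddy test. Formulated compound is applied. Greenhouse holding lasts 13–15 days. Response is scored visually relative to controls, 0 no effect to 100 complete control; a dash means no result.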

[17] = system: corn; experiment: Test B pre-/postemergence herbicide test; assay type: in vivo, Zea mays; conditions: for Plant response rating, Corn: preemergence; for Corn plant response rating: postemergence, visual rating, scale 0 (no effect) to 100 (complete control)
In short: as §1

[18] = system: giant foxtail; experiment: Test A pre-/postemergence herbicide test; assay type: in vivo, Setaria faberi
In short: as §3

[19] = system: morningglory; experiment: Test B pre-/postemergence herbicide test; assay type: in vivo, Ipomoea coccinea; conditions: for Plant response rating, Morningglory: preemergence; for Morningglory plant response rating: postemergence, visual rating, scale 0 (no effect) to 100 (complete control)
In short: (§4)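 Flooded paddy rice and barnyardgrass were treated at the 2-leaf stage; upland plantings received compound either on sown seed or on 1- to 4-leaf seedlings. All were kept 13–15 days in a greenhouse and scored visually, 0–100, relative to untreated plants.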

[20] = system: large crabgrass; experiment: Test A pre-/postemergence herbicide test; assay type: in vivo, Digitaria sanguinalis
In short: as §3

[21] = system: barnyardgrass; experiment: Test B pre-/postemergence herbicide test; assay type: in vivo, Echinochloa crus-galli; conditions: for Plant response rating, Barnyardgrass: preemergence; for Barnyardgrass plant response rating: postemergence, visual rating, scale 0 (no effect) to 100 (complete control)
In short: as §4

[22] = system: small flower umbrella sedge; experiment: Test B flooded paddy test; assay type: in vivo, Cyperus difformis; conditions: 1000 g ai/ha, visual rating, scale 0 to 100 (0 no effect, 100 complete control), 13 to 15 days
In short: as §2

[23] = system: wild oat; experiment: Test B postemergence herbicide test; assay type: in vivo, Avena fatua; conditions: postemergence, visual rating, scale 0 (no effect) to 100 (complete control)
In short: as §2

[24] = system: cocklebur; experiment: Test B pre-/postemergence herbicide test; assay type: in vivo, Xanthium strumarium; conditions: for Plant response rating, Cocklebur: preemergence; for Cocklebur plant response rating: postemergence, visual rating, scale 0 (no effect) to 100 (complete control)
In short: as §4

[25] = 500 g ai/ha, visual rating 0-100, 0 no effect, 100 complete control
[26] = 125 g ai/ha, 0 to 100 scale, 0 is no effect, 100 is complete control
[27] = Postemergence, 500 g ai/ha, 0 to 100 scale, 0 no effect, 100 complete control
[28] = Postemergence, 2000 g ai/ha, 0 to 100 scale, 0 no effect, 100 complete control
[29] = Preemergence, 2000 g ai/ha, visual rating, 0 to 100 scale (0 no effect, 100 complete control)
[30] = preemergence, 500 g ai/ha, visual injury, 0 to 100 scale (0 no effect, 100 complete control)
[31] = Preemergence, 500 g ai/ha, visual rating, 0 to 100 scale (0 no effect, 100 complete control)

With `CCn1nc(C(C)(C)C)cc1C(=O)Nc1nccc(OC)n1` [Compound 165] the “Plant response rating, Foxtail, Giant” value [1, 25] was 0, the “Foxtail, Giant plant response rating” value ([1]; 125 g ai/ha) was 0 and the “Foxtail, Giant plant response rating” value ([1]; 500 g ai/ha) was 0. For the same molecule, the “Plant response rating, Foxtail, Giant” value [1, 26] was 0, the “Blackgrass plant response rating” value ([2]; 125 g ai/ha) was 0 and the “Blackgrass plant response rating” value ([2]; 500 g ai/ha) was 0. For the same molecule, the “Pigweed plant response rating” value [3, 27] was 0, the “Plant response rating, Pigweed” value [3, 28] was 5 and the “Pigweed plant response rating” value [3, 29] was 20. The “Pigweed plant response rating” value [3, 30] was 0, the “Ducksalad plant response rating” value [4] was 0 and the “Morningglory plant response rating” value [5, 27] was 5. For the same molecule, the “Plant response rating, Morningglory” value [5, 28] was 5, the “Morningglory plant response rating” value [5, 31] was 0 and the “Morningglory plant response rating” value [5, 29] was 0. For the same molecule, the “Wheat plant response rating” value [6] was 0, the “Plant response rating, Crabgrass, Large” value [7, 25] was 0 and the “Crabgrass, Large plant response rating” value ([7]; 125 g ai/ha) was 0. The “Crabgrass, Large plant response rating” value ([7]; 500 g ai/ha) was 0, the “Plant response rating, Crabgrass, Large” value [7, 26] was 0 and the “Plant response rating, Rice” value [8, 25] was 0. The “Plant response rating, Rice” value [8, 26] was 0, the “Plant response rating, Lambsquarters” value [9, 25] was 0 and the “Lambsquarters plant response rating” value ([9]; 125 g ai/ha) was 0. The “Lambsquarters plant response rating” value ([9]; 500 g ai/ha) was 0, the “Plant response rating, Lambsquarters” value [9, 26] was 0 and the “Plant response rating, Velvetleaf” value [10, 25] was 0. For the same molecule, the “Velvetleaf plant response rating” value ([10]; 125 g ai/ha) was 0, the “Velvetleaf plant response rating” value ([10]; 500 g ai/ha) was 0 and the “Plant response rating, Velvetleaf” value [10, 26] was 0. For the same molecule, the “Barnyardgrass plant response rating” value [11, 27] was 0, the “Plant response rating, Barnyardgrass” value [11, 28] was 0 and the “Barnyardgrass plant response rating” value [11, 31] was 0. For the same molecule, the “Barnyardgrass plant response rating” value [11, 29] was 0, the “Plant response rating, Surinam Grass” value [12, 25] was 0 and the “Surinam Grass plant response rating” value ([12]; 125 g ai/ha) was 0. For the same molecule, the “Surinam Grass plant response rating” value ([12]; 500 g ai/ha) was 0, the “Plant response rating, Surinam Grass” value [12, 26] was 0 and the “Barnyardgrass plant response rating” value [13] was 0. For the same molecule, the “Plant response rating, Pigweed” value [14, 25] was 0, the “Pigweed plant response rating” value ([14]; 125 g ai/ha) was 0 and the “Pigweed plant response rating” value ([14]; 500 g ai/ha) was 0. The “Plant response rating, Pigweed” value [14, 26] was 0, the “Velvetleaf plant response rating” value [15, 27] was 10 and the “Plant response rating, Velvetleaf” value [15, 28] was 20. The “Velvetleaf plant response rating” value [15, 29] was 5, the “Velvetleaf plant response rating” value [15, 30] was 0 and the “Rice plant response rating” value [16] was 0. The “Plant response rating, Corn” value [17, 25] was 0, the “Corn plant response rating” value ([17]; 125 g ai/ha) was 0 and the “Corn plant response rating” value ([17]; 500 g ai/ha) was 0. For the same molecule, the “Plant response rating, Corn” value [17, 26] was 0, the “Foxtail, Giant plant response rating” value [18, 27] was 0 and the “Plant response rating, Foxtail, Giant” value [18, 28] was 0. The “Foxtail, Giant plant response rating” value [18, 31] was 0, the “Foxtail, Giant plant response rating” value [18, 29] was 0 and the “Plant response rating, Morningglory” value [19, 25] was 0. For the same molecule, the “Morningglory plant response rating” value ([19]; 125 g ai/ha) was 0, the “Morningglory plant response rating” value ([19]; 500 g ai/ha) was 0 and the “Plant response rating, Morningglory” value [19, 26] was 0. The “Crabgrass, Large plant response rating” value [20, 27] was 0, the “Plant response rating, Crabgrass, Large” value [20, 28] was 0 and the “Crabgrass, Large plant response rating” value [20, 31] was 0. For the same molecule, the “Crabgrass, Large plant response rating” value [20, 29] was 0, the “Plant response rating, Barnyardgrass” value [21, 25] was 0 and the “Barnyardgrass plant response rating” value ([21]; 125 g ai/ha) was 0. The “Barnyardgrass plant response rating” value ([21]; 500 g ai/ha) was 0, the “Plant response rating, Barnyardgrass” value [21, 26] was 0 and the “Sedge, Umbrella plant response rating” value [22] was 0. The “Oat, Wild plant response rating” value ([23]; 125 g ai/ha) was 0, the “Oat, Wild plant response rating” value ([23]; 500 g ai/ha) was 0 and the “Plant response rating, Cocklebur” value [24, 25] was 0. The “Cocklebur plant response rating” value ([24]; 125 g ai/ha) was 0, the “Cocklebur plant response rating” value ([24]; 500 g ai/ha) was 0 and the “Plant response rating, Cocklebur” value [24, 26] was 0.
